How the values were obtained:
[1] = tested on: human β-defensin-2 (hBD-2); assay: Promotion of secretion/expression of β-defensin-2 in cultured human keratinocytes (RT-PCR, real-time PCR); assay type: cell-based; details: cultured human keratinocyte (HaCaT), 24 hours, with 1.7 mM calcium chloride; FIG. 1
Method: (§1) A medium containing 1% penicillin/streptomycin but not serum was used to culture human keratinocyte (HaCaT). The human keratinocyte was cultured in a 5% CO2 incubator at 37° C. The cells were seeded in each well of a 6-well plate at 3×10^5 cells/well, and then cultured for 48 hours. 1.7 mM calcium chloride and the new material synthesized from Example 1 were added thereto, and the cells were allowed to culture for 24 hours.
(§2) For assessment, at least one untreated control and at least one positive control were used together. 2.5 ng/mL of lipopolysaccharides (LPS), which is known to promote expression of hBD-2 and LL-37, was used as the positive control, and was allowed to react. After the reaction was completed, a supernatant was collected, and then the cells were washed with phosphate buffer saline (PBS) and collected by using a trypsin-EDTA solution, and stored in a tube. 1 ml of a triazole reagent was added to extract mRNA. […] The diluted RNA was analyzed at a wavelength between 260 nm and 280 nm, and quantitated. […]
(§3) 12.5 μl of PCR premix, 2 μl of primer sense (10 uM), 2 μl of primer antisense (10 uM), 1.5 μl of cDNA, and 7 μl of distilled water were inputted, and then PCR was carried out. […] The sample was migrated and then read out under UV in a dark room, and digitally photographed. Photos of the gel were analyzed by image processing software which quantifies the band intensities. […]

CRAMP = assay: Expression of antimicrobial peptide (CRAMP) in the skin of the atopic dermatitis animal model (immunohistochemistry); assay type: in vivo, mouse; details: animal model with atopic dermatitis, coated for four days; FIG. 4
From the text: An animal model with atopic dermatitis was constructed by coating the abdomens of 6-8 week aged nude mice with 5% oxazolone solution one time for percutaneous sensitization; after week, with 0.1% oxazolone solution every other day, six times, and 1% oxazolone solution every other day, four times. It has been reported that in the case of the animal model with atopic dermatitis using oxazolone, antimicrobial peptides were reduced in the skin (Man M-Q, Hatano Y, Lee S H, et al. Characterization of a hepten-induced, murine model with multiple features of atopic dermatitis: structural, immunologic, and biochemical changes following single versus multiple oxazolone challenges. J Invest Dermatol (2008) 128, 79-86). The skin of the animal model with atopic dermatitis constructed as above was coated with vehicle (PEG:EtOH=7:3) and Compound 1a of Example 1 diluted with the vehicle at a concentration of 0.1% once in the morning and in the afternoon for a total of four days. On the last day, thickness of the skin was measured. […]
The new compound synthesized according to Example 1 was coated for four days, and then skin tissue biopsy was conducted to form a paraffin block. […] After the reaction was completed, expression of CRAMP in the corneum of the skin was measured through a microscope. […]

LL-37 = assay: Promotion of secretion/expression of LL-37 in cultured human keratinocytes (RT-PCR, real-time PCR); assay type: cell-based; details: cultured human keratinocyte (HaCaT), 24 hours, with 1.7 mM calcium chloride; FIG. 1
Method: as §1, §2, §3

nude mice [2] = assay: Recovery of skin barrier damage (TEWL) in nude mice with acute skin barrier disruption; assay type: in vivo, mouse; details: D-Squame acute barrier damage, topical coating, TEWL at 0 h, 3 h, 6 h, 24 h, FIG. 2
Method: Skin barriers of nude mice were acutely damaged, and then effects of the new material represented in Example on recovery of acute skin barriers were assessed. D-Squame was used to induce skin barrier damage to left and right back regions of 6-8 week aged nude mice. Here, all the experimental groups were maintained to have no difference in trans epidermal water loss (TEWL) through measurement of the trans epidermal water loss (TEWL), and then vehicle (PEG:EtOH=7:3) and the new material represented in the example were coated thereon. The trans epidermal water loss (TEWL) was measured at the time of 0 h, 3 h, 6 h, and 24 h to confirm recovery of the skin barrier, and skin biopsies were conducted at the respective time, to thereby implement histological examination and other examinations.

nude mice [3] = assay: Efficacy assessment on oxazolone animal model with atopic dermatitis (skin thickness); assay type: in vivo, mouse
From the text: An animal model with atopic dermatitis was constructed by coating the abdomens of 6-8 week aged nude mice with 5% oxazolone solution one time for percutaneous sensitization; after week, with 0.1% oxazolone solution every other day, six times, and 1% oxazolone solution every other day, four times. It has been reported that in the case of the animal model with atopic dermatitis using oxazolone, antimicrobial peptides were reduced in the skin (Man M-Q, Hatano Y, Lee S H, et al. Characterization of a hepten-induced, murine model with multiple features of atopic dermatitis: structural, immunologic, and biochemical changes following single versus multiple oxazolone challenges. J Invest Dermatol (2008) 128, 79-86). The skin of the animal model with atopic dermatitis constructed as above was coated with vehicle (PEG:EtOH=7:3) and Compound 1a of Example 1 diluted with the vehicle at a concentration of 0.1% once in the morning and in the afternoon for a total of four days. On the last day, thickness of the skin was measured. Corticosteroid based drug, Dexamethasone, which is an effective anti-inflammatory agent, was used as a positive control.

In the case of CCCCCC(=O)N[C@@H](Cc1ccc(O)cc1)C(=O)OC [Chemical Formula (Ia), (S)-Methyl 2-(hexanamido)-3-(4-hydroxyphenyl)propanoate], the melting point is reported as 96 °C, the “secretion of β-defensin-2” value [1] is reported as “promotes secretion” and the “expression of antimicrobial peptides in the skin” value (CRAMP) is reported as “increased”. The “secretion of LL-37” value (LL-37) was “promotes secretion”, the skin barrier recovery (nude mice [2]) was “significantly promoted” and the skin barrier function (nude mice [3]; animal model with atopic dermatitis, topical application) was “improved”. The anti-inflammatory efficacy (nude mice [3]; oxazolone atopic dermatitis nude mice, 0.1% in PEG:EtOH=7:3, coated twice daily for four days, skin thickness, FIG. 3) was “improved”.
